Reference: patent US8399440B2, “Disease modifying anti-arthritic activity of 2-methoxyestradiol” (EntreMed, Inc., priority 2006, dated 2013)

Key:
[1] = test system: PMNL migration to arthritic joints; assay: 51Cr-labeled PMNL migration to arthritic joints; assay type: in vivo, Rat (Lewis)
Excerpt: Rat blood PMNL were isolated from a donor arthritic rat by hydroxyethyl starch (Hespan; Dupont Merck, Wilmington, Del.) exchange transfusion performed through a needle inserted in a femoral vein. The exchanged blood was collected into heparin and acid-citrate-dextrose (ACD, formula A; Fenwal-Travenol, Malton, ON) and the leukocyte-rich plasma was harvested during 1 g sedimentation of red blood cells. The PMNL were then isolated by centrifugation on discontinuous Percoll density gradients of 63% Percoll above 74% Percoll with 10% autologous plasma and calcium and magnesium-free Tyrode's solution (TyS^−/−) for the balance of the suspending medium. After centrifugation (350×g, 30 min at 22° C.) the purified PMNL (>95%) were harvested from the layer above the 74% plasma-Percoll cushion and after washing with TyS^−/−−10% plasma, the cells were radiolabeled with 75 μCi/5×10^7 cells of Na2^51CrO4 (GE Healthcare Bio-Sciences Inc., Baie d'Urfé, QC). After the cells were washed, they were injected i.v. into rats at a dose of 10^7 51Cr-labeled PMNL per animal bearing approximately 1-2×10^5 cpm. These cells were allowed to circulate and migrate for 2 h prior to sacrifice of the rats.
At the time the rats were killed, cardiac blood was obtained to measure the blood leukocyte count and the leukocyte and plasma associated radioactivity. Joints were dissected and segments of limbs sectioned to include carpal, metacarpal, talar and metatarsal joints for analysis as previously reported (Issekutz et al. Lab Invest. (1991), 64:656-63 and Issekutz et al. Arthritis Rheum. (2001), 44:1428-37). The content of ^51Cr in the joints, as well as in dermal skin sites and internal organs, was determined with a Wallac LKB 1280 gamma counter (Fisher Scientific, Nepean, ON). Accumulated isotope in the tissue was expressed as cpm/10^6 cpm injected i.v.

[2] = test system: joint synovium and articular cartilage; assay: Joint histology and cartilage damage (H&E, safranin O); assay type: in vivo, Rat (Lewis)
Protocol: Tissue samples, including joints, were fixed in 10% phosphate-buffered formalin or AFA fixative ([…], 2% formalin, 5% glacial acetic acid, 20% water), the latter for immunostaining. Samples were then decalcified in formic or acetic acid and paraffin embedded. Sections (5 μm) were stained with hematoxylin-eosin (H&E) using routine techniques. To stain cartilage proteoglycan, separate sections were stained with safranin O (Difco, Detroit, Mich.) for 1 min. as described previously (Issekutz, (2001). To assess microvessel density in the synovium, rabbit anti-mouse laminin polyclonal IgG antibody (Cedarlane Laboratories Limited, Homby, ON) was used to outline vessels, with detection using biotinylated goat anti-rabbit IgG antibody and avidin-biotin complexed with HRPO according to manufacturer's recommendations (Vectastain Elite ABC kit; Vector Laboratories Canada Inc., Burlington, ON).
Even by the H&E staining the cartilage damage is visible on the articular surfaces and margins. This is more profoundly illustrated by the safranin O staining with marked focal proteoglycan loss and fragmentation.

estrogen receptor α = target: T1, estrogen receptor α (Homo sapiens, UniProt P03372); conditions: LaVallee et al. 2002; cited from earlier work
T1 sequence (P03372 1-595): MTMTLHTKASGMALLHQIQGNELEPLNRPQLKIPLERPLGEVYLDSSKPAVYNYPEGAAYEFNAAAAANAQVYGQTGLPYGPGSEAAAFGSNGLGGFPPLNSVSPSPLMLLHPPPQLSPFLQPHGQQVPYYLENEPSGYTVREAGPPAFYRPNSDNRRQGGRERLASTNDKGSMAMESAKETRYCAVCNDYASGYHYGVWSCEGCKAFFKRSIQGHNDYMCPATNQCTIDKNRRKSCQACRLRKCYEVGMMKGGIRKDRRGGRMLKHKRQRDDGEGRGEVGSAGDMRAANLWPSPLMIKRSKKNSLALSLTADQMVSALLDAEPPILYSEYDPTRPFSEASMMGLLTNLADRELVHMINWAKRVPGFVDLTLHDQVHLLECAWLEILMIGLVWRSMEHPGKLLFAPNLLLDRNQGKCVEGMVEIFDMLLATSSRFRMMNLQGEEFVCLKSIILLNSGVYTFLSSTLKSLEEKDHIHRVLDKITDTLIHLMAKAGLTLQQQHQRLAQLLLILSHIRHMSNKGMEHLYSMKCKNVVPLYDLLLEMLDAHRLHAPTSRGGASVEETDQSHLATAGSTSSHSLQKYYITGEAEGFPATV

spleen = assay: Splenomegaly and spleen histology in adjuvant arthritis; assay type: in vivo, Rat (Lewis)
Protocol: During the course of AA in the rat, splenomegaly is a prominent feature due to splenitis, lymphoid hyperplasia and even abscess formation. Therefore the splenic enlargement in these animals was monitored for any effect of 2ME2 on this parameter. In rats that were treated with vehicle, spleen weights increased dramatically, increasing nearly three-fold.
A histological examination of the spleens was undertaken in the different groups. The appearance of a normal rat spleen (A) and vehicle-treated spleen (B).

[3] = test system: Adjuvant-Induced Arthritis; assay: Adjuvant arthritis, clinical arthritis severity; assay type: in vivo, Rat (Lewis); conditions: for arthritis severity (clinical score) by day 14, mean: vehicle reached score 11
[4] = Dalhousie Study #1, 30, 100 mg/kg/d PO

## COc1cc2c(cc1O)CC[C@@H]1[C@@H]2CC[C@]2(C)[C@@H](O)CC[C@@H]12 [2ME2, 2-methoxyestradiol]
[1]; 100 or 30 mg/kg/d initiated at day 6 (preclinical phase)
  accumulation of 51Cr-labeled PMNL in hind limb joints: significantly decreased
[1]; [4]
  immune cell migration to the joint: Blocked
[1]; delayed treatment starting on day 10, tendency for a decrease
  accumulation of 51Cr-labeled PMNL in joints: did not reach significance
[2]; 100 mg/kg/d initiated at day 6 post-immunization
  articular cartilage surfaces and proteoglycan staining: preservation of articular cartilage surfaces and proteoglycan staining
[2]; 100 mg/kg/d initiated at day 6 post-immunization, compared to vehicle
  leukocyte infiltration of the synovium: less intense leukocyte infiltration
[2]; treatment delayed to day 10
  cartilage preservation: cartilage preservation was still observed
  leukocyte cellularity in the synovium: less noticeably affected
Estrogen receptor α
  affinity for estrogen receptor α: low affinity
spleen; 30 mg/kg/d from day 6-14 post-immunization, no increase in giant cells or abscess formation, no lymphoid hyperplasia
  spleen histology: Only mild splenitis
spleen; 30 mg/kg/d started on day 6 post-immunization
  increase in spleen weight (splenic enlargement): completely inhibited
spleen; [4]
  splenic abscess formation, giant cells, and lymphoid hyperplasia: Decreased
spleen; high dose (100 mg/kg/d) started on day 6 post-immunization
  increase in spleen weight (splenic enlargement): completely inhibited
spleen; treatment initiated at day 10
  splenic enlargement: markedly inhibited
[3]; 30 mg/kg/d i.p. initiated day 6 post-immunization
  arthritis severity (clinical score) by day 14, mean: 7.4
[3]; 30 mg/kg/d initiated on day 10 post-immunization
  modification of arthritis severity: did not reach statistical significance
[3]; 100 mg/kg/d i.p. initiated day 6 post-immunization
  arthritis severity (clinical score) by day 14, mean: 6.5
[3]; 100 mg/kg/d initiated at onset of clinical arthritis, day 10 post-immunization
  arthritis severity: attenuation of arthritis severity
